Our source for the IC50 values is patent publication US20220348549A1 (Hoffmann-La Roche Inc., priority 2019, published 2022).

Molecules are shown by their SMILES.

The subject of the test is HBV cccDNA (HBeAg level in HepDES19 cells). In words: Engineered HepDES19 primary screen assay (HBeAg ELISA as surrogate marker for cccDNA). The class given is cell-based. To be noted: Hepatitis B virus, HepDES19, 120 h. An excerpt: The assay was employed to screen for novel HBV cccDNA inhibitors. HepDES19 is a HBV cccDNA-producing cell line. In this cell line, HBeAg in the cell culture supernatant as surrogate marker, as HBeAg production depends on cccDNA level and activity. HepDES19 is an engineered cell line which contains a 1.1 unit length HBV genome, and pgRNA transcription from the transgene is controlled by Tetracycline (Tet). In the absence of Tet, pgRNA transcription will be induced, but HBV e antigen (HBeAg) could not be produced from this pgRNA due to very short leader sequence before the HBeAg start codon and the start codon is disrupted. Only after cccDNA is formed, the missing leader sequence and start codon mutation would be restored from the 3′-terminal redundancy of pgRNA, and then HBeAg could be synthesized. Therefore, HBeAg could be used as a surrogate marker for cccDNA (Zhou, T. et al., Antiviral Res. (2006), 72(2), 116-124; Guo, H. et al., J. Virol. (2007), 81(22), 12472-12484).
HepDES19 cells were seeded at 2×10^6 cells per T150 flask and cultured with the culture medium (Dulbecco's Modified Eagle Medium: Nutrient Mixture F-12 [DMEM-F12, Gibco Cat. 11320-82], 10% Fetal Bovine Serum [FBS, Clontech Cat. 631101], 0.1 mM Non-Essential Amino Acids Solution [NEAA, Gibco Cat. 11140-050], 50 μg/mL Penicillin-Streptomycin [PS, Invitrogen Cat. 15140-163], 500 μg/mL Geneticin [G418, Invitrogen Cat. 10131-027]) containing 3 μg/mL Tet (Sigma, Cat. 87128) for 5 days. Cells were then seeded at 4×10^6 cells per T150 in the same culture medium as described above in the absence of Tet for 8 days. Cells were then harvested and frozen at density of 2×10^6 cells per mL. For compound testing, the frozen cells were thawed and seeded into 96-well plates at a density of 6×10^4 cells per well. At 24 hrs after seeding, half log serial dilutions of compounds made with Dimethyl sulfoxide (DMSO, Sigma, Cat. D2650) were further diluted with the same culture medium as described above before they were added to the cells to reach desired final compound concentrations and 1% DMSO concentration. Plates were then incubated at 37° C. for another 5 days before measurement of HBeAg level and cell viability. Intracellular HBeAg level were measured with enzyme-linked immunosorbent assay (ELISA) kit (Shanghai Kehua Diagnostic Medical Products Co., Ltd). Cell viability was assessed using Cell Counting Kit-8 (Donjindo, Cat. CK04-20). IC50 values were derived from the dose-response curve using 4 parameter logistic curve fit method.
The compounds of the present invention were tested for their capacity to inhibit extracellular HBeAg level as described herein.
(ELISA stands for enzyme-linked immunosorbent assay.)
The term IC50 denotes the point on the concentration scale where inhibition reaches its midpoint. A low value points to greater potency in that assay. Compound `Cc1nc(-c2cccc(CO)c2)nc2cc(C(F)(F)F)ccc12` [Example 22, (3-(4-Methyl-7-(trifluoromethyl)quinazolin-2-yl)phenyl)methanol] showed an IC50 of 7130 nM.

The compound `O=C(c1nc(-c2ccc(Cl)nc2)nc2c(Cl)cccc12)N1CCOCC1` [Example 53, [8-Chloro-2-(6-chloro-3-pyridyl)quinazolin-4-yl]-morpholino-methanone] showed a half-inhibitory concentration (IC50) of 83 nM.

The compound `OCc1nc(-c2cccc(Br)c2)nc2cc(C(F)(F)F)ccc12` [Example 20, (2-(3-Bromophenyl)-7-(trifluoromethyl)quinazolin-4-yl)methanol] yielded a half-inhibitory concentration (IC50) of 3660 nM. This IC50 lies about 44-fold higher than the previous one.

`OCc1nc(-c2ccc(Cl)cc2)nc2c(Cl)cccc12` [Example 21, (8-Chloro-2-(4-chlorophenyl)quinazolin-4-yl)methanol] showed an IC50 of 94 nM.

In turn, `O=C(NCCO)c1nc(-c2ccc(Cl)nc2)nc2c(Cl)cccc12` [Example 52, 8-Chloro-2-(6-chloro-3-pyridyl)-N-(2-hydroxyethyl)quinazoline-4-carboxamide] displayed an IC50 of 160 nM.

As to `Cc1nc(-c2ccc(Cl)nc2)nc2c(Cl)cccc12` [Example 23, 8-Chloro-2-(6-chloropyridin-3-yl)-4-methylquinazoline], 220 nM corresponded to half-maximal inhibition (IC50). This IC50 and that of the compound before are within 1.5-fold of each other.

The compound `O=C(NCCCl)c1nc(-c2ccc(Br)cc2)nc2c(Cl)cccc12` [Example 39, 2-(4-Bromophenyl)-8-chloro-N-(2-chloroethyl)quinazoline-4-carboxamide] had an IC50 of 1170 nM. This IC50 lies about 5.3-fold higher than the previous one.

For the compound `Cc1nc(-c2ccc(OCc3cccc(C(=O)O)c3)cc2)nc2c(Cl)cccc12` [Example 8, 3-((4-(8-Chloro-4-methylquinazolin-2-yl)phenoxy)methyl)benzoic acid], half-maximal inhibition (IC50) was put at 460 nM.

Turning to `Cc1nc(-c2cccc(C(F)(F)F)c2)nc2cc(Br)ccc12` [Example 3, 7-Bromo-4-methyl-2-[3-(trifluoromethyl)phenyl]quinazoline], the IC50 was found to be 750 nM. This IC50 lies about 1.6-fold higher than the previous one.

On to `Cc1nc(-c2ccc(OCCOCC(=O)O)cc2)nc2cc(C(F)(F)F)ccc12` [Example 14, 2-(2-(4-(4-Methyl-7-(trifluoromethyl)quinazolin-2-yl)phenoxy)ethoxy)acetic acid], for which the IC50 is 29900 nM.

Compound `COc1ccc(-c2nc(C(N)=O)c3cccc(Cl)c3n2)cc1` [Example 34, 8-chloro-2-(4-methoxyphenyl)quinazoline-4-carboxamide] displayed an IC50 of 2220 nM. This IC50 is about 13-fold lower than that of the compound before.

As to `FC(F)(F)c1ccc2c(CN3CCOCC3)nc(-c3cccc(Br)c3)nc2c1` [Example 18, 4-((2-(3-Bromophenyl)-7-(trifluoromethyl)quinazolin-4-yl)methyl)morpholine], half-maximal inhibition (IC50) was put at 1930 nM.

For the compound `O=C(O)c1cccc(COc2ccc(-c3ncc4cccc(Cl)c4n3)cc2)c1` [Example 7, 3-((4-(8-Chloroquinazolin-2-yl)phenoxy)methyl)benzoic acid], the 50% inhibitory concentration (IC50) was found to be 220 nM.

As to `Cc1nc(-c2ccc(OCCOCC(=O)O)cc2)nc2c(Cl)cccc12` [Example 11, 2-[2-[4-(8-Chloro-4-methyl-quinazolin-2-yl)phenoxy]ethoxy]acetic acid], the midpoint of inhibition, the IC50, lay at 4490 nM.

With `O=C(O)c1nc(-c2ccc(Cl)nc2)nc2c(Cl)cccc12` [Example 45, 8-Chloro-2-(6-chloro-3-pyridyl)quinazoline-4-carboxylic acid], half-maximal inhibition (IC50) was put at 660 nM.

Compound `COC(=O)C1CCN(c2ccc(-c3ncc4cccc(Cl)c4n3)cn2)CC1` [Example 29, Methyl 1-(5-(8-chloroquinazolin-2-yl)pyridin-2-yl)piperidine-4-carboxylate] registered an IC50 of 1230 nM.

Consider `CN(C)c1ccc(-c2ncc3cccc(Cl)c3n2)cn1` [Example 26, 5-(8-Chloroquinazolin-2-yl)-N,N-dimethylpyridin-2-amine], for which the IC50 amounted to 91 nM. This IC50 lies about 14-fold lower than the previous one.

Compound `O=C(O)c1nc(-c2ccc(N3CCCC3)nc2)nc2c(Cl)cccc12` [Example 49, 8-Chloro-2-(6-pyrrolidin-1-yl-3-pyridyl)quinazoline-4-carboxylic acid] came in with an IC50 of 11000 nM.

The compound `O=C(c1nc(-c2ccc(Br)cc2)nc2cc(C(F)(F)F)ccc12)N1CCOCC1` [Example 44, [2-(4-Bromophenyl)-7-(trifluoromethyl)quinazolin-4-yl]-morpholino-methanone] displayed an IC50 of 8700 nM.

In turn, `CN(C)Cc1nc(-c2cccc(Br)c2)nc2cc(C(F)(F)F)ccc12` [Example 17, 1-(2-(3-Bromophenyl)-7-(trifluoromethyl)quinazolin-4-yl)-N,N-dimethylmethanamine] gave an IC50 of 4660 nM.

`Oc1ccc(-c2ncc3cccc(Cl)c3n2)cn1` [Example 25, 5-(8-Chloroquinazolin-2-yl)pyridin-2-ol]: the IC50 was found to be 4680 nM.

For `Clc1ccc(-c2ncc3cccc(Cl)c3n2)cn1` [Example 24, 8-Chloro-2-(6-chloropyridin-3-yl)quinazoline], the IC50 worked out at 94 nM.

With `Cc1nc(-c2ccc(Br)cc2)nc2c(Cl)cccc12` [Example 40, 2-(4-Bromophenyl)-8-chloro-4-methyl-quinazoline], half-maximal inhibition (IC50) required 82 nM.

In the case of `O=C(O)C1CC(OCCOc2ccc(-c3nc(C(F)(F)F)c4cccc(Cl)c4n3)cc2)C1` (stereo not drawn) [Example 56, 3-[2-[4-[8-chloro-4-(trifluoromethyl)quinazolin-2-yl]phenoxy]ethoxy]cyclobutanecarboxylic acid], inhibition was half-maximal at 7860 nM (IC50).

In turn, `COC(=O)c1cccc(COc2ccc(-c3ncc4cccc(Cl)c4n3)cc2)c1` [Example 6, Methyl 3-((4-(8-chloroquinazolin-2-yl)phenoxy)methyl)benzoate] returned an IC50 of 6160 nM.

For `O=C(O)[C@H]1C[C@@H](OCCOc2ccc(-c3ncc4cccc(Cl)c4n3)cc2)C1` [Example 42, cis-3-[2-[4-(8-Chloroquinazolin-2-yl)phenoxy]ethoxy]cyclobutanecarboxylic acid], the IC50 is 16900 nM.

As for `Cc1nc(-c2ccc(OCCO)cc2)nc2c(Cl)cccc12` [Example 9, 2-[4-(8-Chloro-4-methyl-quinazolin-2-yl)phenoxy]ethanol], inhibition was half-maximal at 1930 nM (IC50).

Turning to `O=C(O)c1nc(-c2ccc(OCCO[C@H]3C[C@@H](C(=O)O)C3)nc2)nc2c(Cl)cccc12` [Example 50, cis-2-[6-[2-(3-Carboxycyclobutoxy)ethoxy]-3-pyridyl]-8-chloro-quinazoline-4-carboxylic acid], inhibition was half-maximal at 15000 nM (IC50).

In the case of `COc1ccc(-c2ncc3cccc(Cl)c3n2)cc1` [Example 36, 8-Chloro-2-(4-methoxyphenyl)quinazoline], half-maximal inhibition (IC50) was put at 180 nM.

As to `COC(=O)c1nc(-c2cccc(Br)c2)nc2cc(C(F)(F)F)ccc12` [Example 32, Methyl 2-(3-bromophenyl)-7-(trifluoromethyl)quinazoline-4-carboxylate], 6190 nM corresponded to half-maximal inhibition (IC50).

On to `NC(=O)c1nc(-c2ccc(Cl)nc2)nc2c(Cl)cccc12` [Example 46, 8-chloro-2-(6-chloro-3-pyridyl)quinazoline-4-carboxamide], for which the IC50 is 110 nM.

In the case of `O=C(O)C1CCN(c2ccc(-c3ncc4cccc(Cl)c4n3)cn2)CC1` [Example 30, 1-(5-(8-chloroquinazolin-2-yl)pyridin-2-yl)piperidine-4-carboxylic acid], the IC50 stood at 7630 nM.

`COc1ccc(-c2nc(C(=O)O)c3cccc(Cl)c3n2)cc1` [Example 33, 8-Chloro-2-(4-methoxyphenyl)quinazoline-4-carboxylic acid] had a concentration for half-maximal inhibition (IC50) of 7750 nM.
